Reference: ChEMBL document CHEMBL3885861, “Open TG-GATES”

Species: Rattus norvegicus
Experiment: Open TG-GATES - Regimen: Daily Repeat
Assay type: toxicity, organism-based, Sprague-Dawley
Parameters: regimen Daily Repeat, gender Male, age 6 weeks
Conditions: in vivo, po, route gavage; for APTT / Bas / Eos / Fbg / Ht / Lym / MCHC / MCV / Mono / PT / Plat / RBC / Ret / WBC: tissue Blood; for KIDNEY_L / KIDNEY_R / KIDNEY_TOTAL: tissue Kidney; for LIVER: tissue Liver; for ALP / ALT / AST / BUN / CRE / Ca / Cl / DBIL / IP / LDH / Na / PL / RALB / TBIL / TC / TG / TP / gamma-GTP: tissue Plasma
[1] = 0 mg/kg, 72 h, dose level Control, time 3 day
[2] = 0 mg/kg, […], dose level Control, time 7 day
[3] = 0 mg/kg, […], dose level Control, time 14 day
[4] = 0 mg/kg, […], dose level Control, time 28 day
[5] = 40 mg/kg, 72 h, dose level Low, time 3 day
[6] = 40 mg/kg, […], dose level Low, time 7 day
[7] = 40 mg/kg, […], dose level Low, time 14 day
[8] = 40 mg/kg, […], dose level Low, time 28 day

CC(C)N(CCC(C(N)=O)(c1ccccc1)c1ccccn1)C(C)C (stereo not given) [DISOPYRAMIDE]
TERMINAL_BW [1]: 230.2 g | APTT [1]: 22 s | Bas [1]: 0% | Eos [1]: 1.2% | Fbg [1]: 325.2 mg/dL | Ht [1]: 39.9% | Lym [1]: 76.8% | MCHC [1]: 32% | MCV [1]: 64.5 fL | Mono [1]: 2.8% | PT [1]: 15.8 s | Plat [1]: 130.4 x10_4/uL | RBC [1]: 617.8 x10_4/ul | Ret [1]: 7.1% | WBC [1]: 99.7 x10_2/uL | KIDNEY_L [1]: 1 g | KIDNEY_R [1]: 1 g | KIDNEY_TOTAL [1]: 2 g | LIVER [1]: 11 g | ALP [1]: 1742 IU/L | ALT [1]: 49.6 IU/L | AST [1]: 80.8 IU/L | BUN [1]: 17.6 mg/dL | CRE [1]: 0.2 mg/dL | Ca [1]: 10.6 mg/dL | Cl [1]: 107.2 meq/L | DBIL [1]: 0 mg/dL | IP [1]: 7.5 mg/dL | LDH [1]: 201.8 IU/L | Na [1]: 143 meq/L | PL [1]: 140.4 mg/dL | RALB [1]: 2.9 g/dL | TBIL [1]: 0 mg/dL | TC [1]: 71.6 mg/dL | TG [1]: 88 mg/dL | TP [1]: 5.5 g/dL | gamma-GTP [1]: 2 IU/L | TERMINAL_BW [2]: 265.2 g | TERMINAL_BW [3]: 303.7 g | TERMINAL_BW [4]: 406.5 g | APTT [2]: 21.6 s | Bas [2]: 0% | Eos [2]: 0.8% | Fbg [2]: 324 mg/dL | Ht [2]: 39.9% | Lym [2]: 78% | MCHC [2]: 32.1% | MCV [2]: 62.4 fL | Mono [2]: 2% | PT [2]: 16.2 s | Plat [2]: 116.2 x10_4/uL | RBC [2]: 639.4 x10_4/ul | Ret [2]: 6.7% | WBC [2]: 90.3 x10_2/uL | APTT [3]: 25.1 s | Bas [3]: 0% | Eos [3]: 1% | Fbg [3]: 319.4 mg/dL | Ht [3]: 41.9% | Lym [3]: 80.8% | MCHC [3]: 33% | MCV [3]: 58.7 fL | Mono [3]: 2% | PT [3]: 15.7 s | Plat [3]: 113.2 x10_4/uL | RBC [3]: 715 x10_4/ul | Ret [3]: 4.4% | WBC [3]: 124.4 x10_2/uL | APTT [4]: 24.9 s | Bas [4]: 0% | Eos [4]: 1% | Fbg [4]: 317 mg/dL | Ht [4]: 42.9% | Lym [4]: 80% | MCHC [4]: 33.5% | MCV [4]: 56.9 fL | Mono [4]: 2.2% | PT [4]: 15.7 s | Plat [4]: 100.4 x10_4/uL | RBC [4]: 755.2 x10_4/ul | Ret [4]: 3.4% | WBC [4]: 136.1 x10_2/uL | KIDNEY_L [2]: 1.1 g | KIDNEY_R [2]: 1.1 g | KIDNEY_TOTAL [2]: 2.3 g | KIDNEY_L [3]: 1.2 g | KIDNEY_R [3]: 1.3 g | KIDNEY_TOTAL [3]: 2.5 g | KIDNEY_L [4]: 1.6 g | KIDNEY_R [4]: 1.6 g | KIDNEY_TOTAL [4]: 3.1 g | LIVER [2]: 13.2 g | LIVER [3]: 13.6 g | LIVER [4]: 17.8 g | ALP [2]: 1665 IU/L | ALT [2]: 44 IU/L | AST [2]: 70.8 IU/L | BUN [2]: 19 mg/dL | CRE [2]: 0.2 mg/dL | Ca [2]: 10.6 mg/dL | Cl [2]: 106.6 meq/L | DBIL [2]: 0 mg/dL | IP [2]: 7.8 mg/dL | LDH [2]: 199.2 IU/L | Na [2]: 143.2 meq/L | PL [2]: 158.6 mg/dL | RALB [2]: 3 g/dL | TBIL [2]: 0 mg/dL | TC [2]: 81.4 mg/dL | TG [2]: 133.6 mg/dL | TP [2]: 5.6 g/dL | gamma-GTP [2]: 2 IU/L | ALT [3]: 41.8 IU/L | AST [3]: 68 IU/L | BUN [3]: 18.6 mg/dL | CRE [3]: 0.1 mg/dL | Ca [3]: 10.3 mg/dL | Cl [3]: 104.8 meq/L | DBIL [3]: 0 mg/dL | IP [3]: 7 mg/dL | LDH [3]: 142.2 IU/L | Na [3]: 142.2 meq/L | PL [3]: 146.4 mg/dL | RALB [3]: 3 g/dL | TBIL [3]: 0.004 mg/dL | TC [3]: 71.2 mg/dL | TG [3]: 138.2 mg/dL | TP [3]: 5.7 g/dL | gamma-GTP [3]: 2.2 IU/L | ALP [4]: 1292.8 IU/L | ALT [4]: 36.8 IU/L | AST [4]: 62.8 IU/L | BUN [4]: 17.4 mg/dL | CRE [4]: 0.2 mg/dL | Ca [4]: 10.4 mg/dL | Cl [4]: 105 meq/L | DBIL [4]: 0 mg/dL | IP [4]: 6.8 mg/dL | LDH [4]: 199.4 IU/L | Na [4]: 140.6 meq/L | PL [4]: 145.4 mg/dL | RALB [4]: 3.1 g/dL | TBIL [4]: 0.006 mg/dL | TC [4]: 70.6 mg/dL | TG [4]: 181.6 mg/dL | TP [4]: 6.1 g/dL | gamma-GTP [4]: 2.2 IU/L | TERMINAL_BW [5]: 231.5 g | APTT [5]: 20.9 s | Bas [5]: 0% | Eos [5]: 1.2% | Fbg [5]: 313.2 mg/dL | Ht [5]: 39.2% | Lym [5]: 81.8% | MCHC [5]: 32.1% | MCV [5]: 63.9 fL | Mono [5]: 2.2% | PT [5]: 16 s | Plat [5]: 113.5 x10_4/uL | RBC [5]: 614.4 x10_4/ul | Ret [5]: 6.2% | WBC [5]: 87.7 x10_2/uL | KIDNEY_L [5]: 1.1 g | KIDNEY_R [5]: 1.1 g | KIDNEY_TOTAL [5]: 2.1 g | LIVER [5]: 10.8 g | ALP [5]: 1494 IU/L | ALT [5]: 45.4 IU/L | AST [5]: 75.4 IU/L | BUN [5]: 15.4 mg/dL | CRE [5]: 0.2 mg/dL | Ca [5]: 10.8 mg/dL | Cl [5]: 107.8 meq/L | DBIL [5]: 0 mg/dL | IP [5]: 7.6 mg/dL | LDH [5]: 188.2 IU/L | PL [5]: 146.8 mg/dL | RALB [5]: 3 g/dL | TBIL [5]: 0 mg/dL | TC [5]: 73.4 mg/dL | TG [5]: 122.4 mg/dL | TP [5]: 5.4 g/dL | gamma-GTP [5]: 1.8 IU/L | TERMINAL_BW [6]: 254.3 g | TERMINAL_BW [7]: 308.2 g | TERMINAL_BW [8]: 375 g | APTT [6]: 20.5 s | Bas [6]: 0% | Eos [6]: 0.8% | Fbg [6]: 323.8 mg/dL | Ht [6]: 40% | Lym [6]: 83% | MCHC [6]: 32.7% | MCV [6]: 61.2 fL | Mono [6]: 1.8% | PT [6]: 15.9 s | Plat [6]: 122.2 x10_4/uL | RBC [6]: 654 x10_4/ul | Ret [6]: 6.2% | WBC [6]: 120.7 x10_2/uL | APTT [7]: 23.9 s | Bas [7]: 0% | Eos [7]: 1% | Fbg [7]: 310.6 mg/dL | Ht [7]: 41.1% | Lym [7]: 80.6% | MCHC [7]: 32.8% | MCV [7]: 59.7 fL | Mono [7]: 2.2% | PT [7]: 15.3 s | Plat [7]: 109 x10_4/uL | RBC [7]: 688.2 x10_4/ul | Ret [7]: 4.9% | WBC [7]: 113.4 x10_2/uL | APTT [8]: 25.5 s | Bas [8]: 0% | Eos [8]: 1.2% | Fbg [8]: 320.2 mg/dL | Ht [8]: 43.3% | Lym [8]: 81% | MCHC [8]: 33.8% | MCV [8]: 55.7 fL | Mono [8]: 2.2% | PT [8]: 15.4 s | Plat [8]: 110.5 x10_4/uL | RBC [8]: 776.4 x10_4/ul | Ret [8]: 2.6% | WBC [8]: 121.1 x10_2/uL | KIDNEY_L [6]: 1 g | KIDNEY_R [6]: 1.1 g | KIDNEY_TOTAL [6]: 2.1 g | KIDNEY_L [7]: 1.3 g | KIDNEY_R [7]: 1.3 g | KIDNEY_TOTAL [7]: 2.6 g | KIDNEY_L [8]: 1.4 g | KIDNEY_R [8]: 1.4 g | KIDNEY_TOTAL [8]: 2.7 g | LIVER [6]: 11.6 g | LIVER [7]: 14.7 g | LIVER [8]: 16 g | ALP [6]: 1528.8 IU/L | ALT [6]: 48.2 IU/L | AST [6]: 72.2 IU/L | BUN [6]: 16.4 mg/dL | CRE [6]: 0.1 mg/dL | Ca [6]: 10.4 mg/dL | Cl [6]: 106.8 meq/L | DBIL [6]: 0.002 mg/dL | IP [6]: 7.7 mg/dL | LDH [6]: 149.8 IU/L | Na [6]: 143.2 meq/L | PL [6]: 141.6 mg/dL | RALB [6]: 2.9 g/dL | TBIL [6]: 0 mg/dL | TC [6]: 73.4 mg/dL | TG [6]: 115.6 mg/dL | TP [6]: 5.4 g/dL | gamma-GTP [6]: 1.8 IU/L | ALP [7]: 1255.8 IU/L | ALT [7]: 47.8 IU/L | AST [7]: 75 IU/L | BUN [7]: 16.8 mg/dL | CRE [7]: 0.2 mg/dL | Ca [7]: 10.4 mg/dL | Cl [7]: 104.8 meq/L | DBIL [7]: 0 mg/dL | IP [7]: 7.6 mg/dL | LDH [7]: 225 IU/L | Na [7]: 141.6 meq/L | PL [7]: 147 mg/dL | RALB [7]: 3.1 g/dL | TBIL [7]: 0.01 mg/dL | TC [7]: 73.6 mg/dL | TG [7]: 131 mg/dL | TP [7]: 5.7 g/dL | gamma-GTP [7]: 2.2 IU/L | ALP [8]: 1094 IU/L | ALT [8]: 40 IU/L | AST [8]: 64.6 IU/L | BUN [8]: 17.4 mg/dL | CRE [8]: 0.2 mg/dL | Ca [8]: 10.5 mg/dL | Cl [8]: 106.4 meq/L | DBIL [8]: 0 mg/dL | IP [8]: 6.3 mg/dL | LDH [8]: 158.6 IU/L | Na [8]: 140.6 meq/L | PL [8]: 158 mg/dL | RALB [8]: 3.1 g/dL | TBIL [8]: 0.004 mg/dL | TC [8]: 70 mg/dL | TG [8]: 205 mg/dL | TP [8]: 6.1 g/dL | gamma-GTP [8]: 2.2 IU/L | TERMINAL_BW (120 mg/kg, 72 h, dose level Middle, time 3 day): 227.1 g
